Reference: publication PMC11207571, “Applicability of MDR1 Overexpressing Abcb1KO-MDCKII Cell Lines for Investigating In Vitro Species Differences and Brain Penetration Prediction” (Pharmaceutics, 2024)

Legend:
[1] = target: T1, rat Mdr1a (Rattus norvegicus, UniProt Q6PSM0); test: Bidirectional transport assay, efflux ratio in Abcb1KO-MDCKII rMDR1 cells; conditions: for efflux ratio at 120 min, 1 µM: rat, pH 7.4
How it was run: (§1)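 Compound concentrations determined by HPLC-MS/MS (SRM), 0.1% formic acid water/acetonitrile eluents; cassette pools of 3–4 analytes.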

[2] = target: T2, mouse Mdr1a (Mus musculus, UniProt P21447); test: Bidirectional transport assay, efflux ratio in Abcb1KO-MDCKII mMDR1 cells; conditions: for efflux ratio at 120 min, 1 µM: mouse, pH 7.4
T2 sequence (P21447 whole entry): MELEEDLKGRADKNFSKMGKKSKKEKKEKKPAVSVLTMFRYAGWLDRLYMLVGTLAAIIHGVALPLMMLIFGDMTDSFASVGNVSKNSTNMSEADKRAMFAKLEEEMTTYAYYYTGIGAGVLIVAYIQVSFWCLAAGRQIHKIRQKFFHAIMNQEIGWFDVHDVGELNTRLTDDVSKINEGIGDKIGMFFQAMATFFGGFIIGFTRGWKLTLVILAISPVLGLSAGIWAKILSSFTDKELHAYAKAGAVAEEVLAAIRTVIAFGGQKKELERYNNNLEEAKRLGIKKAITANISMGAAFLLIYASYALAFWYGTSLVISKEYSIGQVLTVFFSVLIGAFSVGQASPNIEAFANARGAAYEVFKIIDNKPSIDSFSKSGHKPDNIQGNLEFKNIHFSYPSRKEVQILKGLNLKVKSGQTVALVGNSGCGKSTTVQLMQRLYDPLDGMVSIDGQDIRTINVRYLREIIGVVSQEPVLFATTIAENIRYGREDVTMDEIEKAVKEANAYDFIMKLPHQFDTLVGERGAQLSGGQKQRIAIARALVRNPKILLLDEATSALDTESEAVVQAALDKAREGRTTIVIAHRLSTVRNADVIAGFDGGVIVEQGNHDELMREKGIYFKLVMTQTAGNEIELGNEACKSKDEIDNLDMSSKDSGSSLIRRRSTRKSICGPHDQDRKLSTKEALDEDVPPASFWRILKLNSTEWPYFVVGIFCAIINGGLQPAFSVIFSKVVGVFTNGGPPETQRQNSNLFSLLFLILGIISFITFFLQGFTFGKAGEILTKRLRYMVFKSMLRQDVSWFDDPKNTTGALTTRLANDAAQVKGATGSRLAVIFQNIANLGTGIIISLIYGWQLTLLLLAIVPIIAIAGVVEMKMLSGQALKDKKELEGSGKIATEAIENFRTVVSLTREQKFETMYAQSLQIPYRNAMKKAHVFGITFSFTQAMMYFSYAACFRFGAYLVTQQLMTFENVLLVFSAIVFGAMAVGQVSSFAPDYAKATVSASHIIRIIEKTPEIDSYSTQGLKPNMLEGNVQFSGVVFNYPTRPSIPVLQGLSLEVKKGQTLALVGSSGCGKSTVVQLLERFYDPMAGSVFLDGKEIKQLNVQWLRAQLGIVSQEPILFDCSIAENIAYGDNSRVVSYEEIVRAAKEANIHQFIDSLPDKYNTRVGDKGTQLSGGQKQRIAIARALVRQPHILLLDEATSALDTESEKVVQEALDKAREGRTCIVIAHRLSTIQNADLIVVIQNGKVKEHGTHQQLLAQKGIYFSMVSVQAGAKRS
How it was run: as §1

[3] = target: T3, human MDR1 (Homo sapiens, UniProt P08183); test: Bidirectional transport assay, efflux ratio in Abcb1KO-MDCKII hMDR1 cells; conditions: for CNS penetration classification based on hMDR1 ER alone: ER cut-off 2, in vivo rodent Kp,uu,brain cut-off 0.3; for efflux ratio at 120 min, 1 µM: human, MDCK-MDR1, pH 7.4
T3 sequence (P08183 whole entry): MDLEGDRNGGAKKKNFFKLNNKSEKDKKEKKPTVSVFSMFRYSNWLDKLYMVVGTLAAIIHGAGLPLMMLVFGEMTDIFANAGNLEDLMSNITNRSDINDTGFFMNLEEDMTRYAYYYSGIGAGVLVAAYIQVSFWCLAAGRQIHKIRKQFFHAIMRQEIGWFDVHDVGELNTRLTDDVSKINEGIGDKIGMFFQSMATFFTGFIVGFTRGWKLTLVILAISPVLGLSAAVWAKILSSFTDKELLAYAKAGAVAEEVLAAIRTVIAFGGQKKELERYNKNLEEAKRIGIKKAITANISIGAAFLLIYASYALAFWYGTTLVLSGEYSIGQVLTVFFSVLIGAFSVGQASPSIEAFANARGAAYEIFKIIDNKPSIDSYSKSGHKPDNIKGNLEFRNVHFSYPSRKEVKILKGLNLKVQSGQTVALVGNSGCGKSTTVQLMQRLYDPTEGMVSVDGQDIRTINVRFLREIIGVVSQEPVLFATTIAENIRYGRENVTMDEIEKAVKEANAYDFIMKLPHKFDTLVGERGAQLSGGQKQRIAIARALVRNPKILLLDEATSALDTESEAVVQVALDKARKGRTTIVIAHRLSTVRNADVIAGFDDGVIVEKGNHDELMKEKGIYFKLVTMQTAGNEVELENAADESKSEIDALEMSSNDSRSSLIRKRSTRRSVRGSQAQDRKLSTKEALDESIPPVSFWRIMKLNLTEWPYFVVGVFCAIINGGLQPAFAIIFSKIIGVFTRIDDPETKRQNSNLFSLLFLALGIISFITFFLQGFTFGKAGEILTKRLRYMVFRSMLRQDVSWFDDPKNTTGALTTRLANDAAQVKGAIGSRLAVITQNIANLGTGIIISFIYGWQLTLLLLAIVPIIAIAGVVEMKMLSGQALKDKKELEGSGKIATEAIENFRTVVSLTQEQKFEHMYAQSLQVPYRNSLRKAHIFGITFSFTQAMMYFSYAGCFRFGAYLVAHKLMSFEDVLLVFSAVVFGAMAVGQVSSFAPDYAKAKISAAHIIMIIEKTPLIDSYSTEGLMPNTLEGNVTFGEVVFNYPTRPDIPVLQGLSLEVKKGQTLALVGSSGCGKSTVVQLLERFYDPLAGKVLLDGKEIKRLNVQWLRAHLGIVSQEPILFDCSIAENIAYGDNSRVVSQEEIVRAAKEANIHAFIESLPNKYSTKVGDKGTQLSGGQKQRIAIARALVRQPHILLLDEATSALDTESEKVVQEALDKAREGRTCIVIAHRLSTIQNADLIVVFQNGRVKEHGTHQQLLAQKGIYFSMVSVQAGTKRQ
How it was run: as §1

[4] = target: T4, cynomolgus monkey Mdr1 (Macaca fascicularis, UniProt Q8HZQ6); test: Bidirectional transport assay, efflux ratio in Abcb1KO-MDCKII cyMDR1 cells; conditions: for efflux ratio at 120 min, 1 µM: cynomolgus monkey, pH 7.4
T4 sequence (Q8HZQ6 1-1283): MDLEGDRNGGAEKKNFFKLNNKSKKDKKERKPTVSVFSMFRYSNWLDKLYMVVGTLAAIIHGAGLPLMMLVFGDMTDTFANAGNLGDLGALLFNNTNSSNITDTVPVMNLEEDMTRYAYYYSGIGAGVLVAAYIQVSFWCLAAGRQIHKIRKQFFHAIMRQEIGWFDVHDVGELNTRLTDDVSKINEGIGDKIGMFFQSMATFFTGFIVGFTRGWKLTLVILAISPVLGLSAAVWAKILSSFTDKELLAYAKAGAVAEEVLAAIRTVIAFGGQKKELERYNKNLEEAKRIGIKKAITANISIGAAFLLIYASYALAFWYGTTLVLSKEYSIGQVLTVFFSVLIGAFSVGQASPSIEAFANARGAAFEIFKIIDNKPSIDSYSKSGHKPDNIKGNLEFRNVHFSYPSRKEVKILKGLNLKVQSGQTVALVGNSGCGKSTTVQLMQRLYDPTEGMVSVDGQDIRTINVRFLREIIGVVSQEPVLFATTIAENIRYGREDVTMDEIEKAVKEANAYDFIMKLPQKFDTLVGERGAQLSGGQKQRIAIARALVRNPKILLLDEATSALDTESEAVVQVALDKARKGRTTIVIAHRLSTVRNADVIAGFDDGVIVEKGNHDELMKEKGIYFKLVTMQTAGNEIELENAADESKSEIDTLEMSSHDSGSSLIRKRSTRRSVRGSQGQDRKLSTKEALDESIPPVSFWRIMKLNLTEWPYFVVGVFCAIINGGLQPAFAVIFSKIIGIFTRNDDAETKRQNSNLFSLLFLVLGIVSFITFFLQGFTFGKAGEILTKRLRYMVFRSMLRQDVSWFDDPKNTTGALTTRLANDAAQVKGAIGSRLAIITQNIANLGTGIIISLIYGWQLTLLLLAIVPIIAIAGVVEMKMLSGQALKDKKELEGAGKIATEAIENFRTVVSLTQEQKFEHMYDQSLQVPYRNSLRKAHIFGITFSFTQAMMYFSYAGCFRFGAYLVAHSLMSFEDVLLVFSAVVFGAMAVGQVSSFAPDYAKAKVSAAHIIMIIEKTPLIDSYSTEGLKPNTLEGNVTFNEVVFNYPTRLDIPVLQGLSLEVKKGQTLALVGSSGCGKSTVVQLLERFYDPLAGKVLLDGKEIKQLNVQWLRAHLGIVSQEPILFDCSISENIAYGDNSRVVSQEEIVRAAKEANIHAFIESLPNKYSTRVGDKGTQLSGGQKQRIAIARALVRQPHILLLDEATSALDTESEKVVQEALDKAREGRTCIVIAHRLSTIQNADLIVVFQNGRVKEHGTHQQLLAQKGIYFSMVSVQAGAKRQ
How it was run: as §1

[5] = system: Abcb1KO-MDCKII-Mock cells; test: Bidirectional transport assay, efflux ratio in Abcb1KO-MDCKII-Mock control cells; conditions: 1 µM, 120 min; mean ± SD
Procedure: (§2) Eluent A consisted of 0.1% formic acid in water, eluent B consisted of 0.1% formic acid in acetonitrile. Then, 10 µL samples were injected into the HPLC-MS/MS system. Mass spectrometric detection was performed in SRM mode, and ion transitions for each analyte were optimized during method development. Samples were analyzed in pools, with each pool containing three to four analytes.

[6] = target: T5, human BCRP (Homo sapiens, UniProt Q9UNQ0); test: Bidirectional transport assay, efflux ratio in MDCKII-BCRP cells; conditions: for efflux ratio at 120 min, 1 µM: human, pH 7.4
T5 sequence (Q9UNQ0 1-655): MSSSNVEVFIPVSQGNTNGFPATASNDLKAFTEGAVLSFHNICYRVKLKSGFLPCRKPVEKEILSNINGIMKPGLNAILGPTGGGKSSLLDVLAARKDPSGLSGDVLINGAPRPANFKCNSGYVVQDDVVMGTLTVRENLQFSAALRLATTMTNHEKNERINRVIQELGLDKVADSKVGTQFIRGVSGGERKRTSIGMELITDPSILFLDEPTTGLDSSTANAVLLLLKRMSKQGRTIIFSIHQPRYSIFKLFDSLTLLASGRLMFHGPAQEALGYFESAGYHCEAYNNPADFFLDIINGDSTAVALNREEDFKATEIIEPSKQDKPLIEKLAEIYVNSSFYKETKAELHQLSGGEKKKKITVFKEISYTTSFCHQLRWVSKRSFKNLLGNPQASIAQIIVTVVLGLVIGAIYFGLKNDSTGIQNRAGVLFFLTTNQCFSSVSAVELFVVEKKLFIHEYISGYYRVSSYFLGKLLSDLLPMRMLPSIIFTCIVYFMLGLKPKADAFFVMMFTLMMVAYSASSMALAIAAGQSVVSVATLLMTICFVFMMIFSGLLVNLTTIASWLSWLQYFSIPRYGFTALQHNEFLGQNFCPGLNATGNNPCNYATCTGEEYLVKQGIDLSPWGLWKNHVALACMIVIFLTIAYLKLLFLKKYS
How it was run: as §1

[7] = system: hMDR1 and hBCRP; test: Brain permeability classification from total ER of hMDR1 and hBCRP against in vivo rodent Kp,uu,brain
Procedure: MDR1 and/or BCRP substrate properties were investigated by binary classification analysis on CNS+ and CNS− compounds. […] True negative (TN), where there was no efflux and the CNS+ compound crossed the BBB. […] The sensitivity and specificity of the estimation of brain penetration along with MDR1 and BCRP activity were calculated from predictive performance metrics.
First, NET ER was calculated and used for human predictions, (2) NET ER=ER(−inh)[…]ER(+inh) where ER(−inh) is ER in the absence of inhibitor, and ER(+inh) is ER in the presence of inhibitor, for hMDR1 (ERMDR1) or hBCRP (ERBCRP).
To identify the correlation between the in vivo rodent Kp,uu,brain and ERs, 58 compounds with known Kp,uu,brain were selected. An ER of 2 was used as a cut-off to classify MDR1 substrates and a Kp,uu,brain of 0.3 was used as a threshold for CNS penetrant compounds. The resulting graphs are thus divided into four quadrants. Brain penetration (Kp,uu,brain) was used as the logical value true condition, with compounds having Kp,uu,brain ≤ 0.3 considered positive. Q2 and Q3 comprise molecules with impaired brain penetration. […] Molecules in Q4 (true negatives, TN) can freely access the brain (Figure 2). Predictive performance metrics were calculated to show the efficacy of the established cell lines in BBB permeability classification (Table 1). Sensitivity refers to the ability of the model to correctly classify CNS-restricted molecules based on MDR1 substrate nature.
Subsequently, for a more reliable prediction of brain penetration, data generated in the hBCRP cell line were included in the analysis. hBCRP assay conditions and evaluations were identical to that of MDR1 cell lines, which allowed proper comparisons (Figure 2E,F). Total ER was calculated by combining ERs determined in BCRP and hMDR1 cell lines based on Equation (3), with an ER cut-off of 3. […] Eventually, total ERs were also assessed with the Relative Expression Factor (REF) (Equation (4); Figure 2E,F). REF is an in vitro and in vivo correlation scaler, calculated from transporter protein abundances in brain microvessels versus overexpressing cell lines.

[8] = Bidirectional transport assay, efflux ratio in Abcb1KO-MDCKII-Mock control cells; conditions: dog, MDCK, pH 7.4
Procedure: as §2

[9] = target: T3, human MDR1; test: Inhibition of 3H-digoxin or 3H-quinidine bidirectional transport in hMDR1 cells; conditions: IC50 from ER
[10] = target: T4, cynomolgus monkey Mdr1; test: Inhibition of 3H-digoxin or 3H-quinidine bidirectional transport in cyMDR1 cells; conditions: Inhibition of quinidine transport IC50±SD, cyMDR1, probe 3H-quinidine 0.1 µM, 60 min; IC50 from ER
[11] = target: T2, mouse Mdr1a; test: Inhibition of 3H-digoxin or 3H-quinidine bidirectional transport in mMDR1 cells; type: cell-based; parameters: mouse Mdr1a (NM_011076.3); expressed in transfected cells; host or cells: Abcb1KO-MDCKII (canine kidney, endogenous Abcb1 knocked out), transduced, single-cell clone; conditions: IC50 from ER
[12] = target: T1, rat Mdr1a; test: Inhibition of 3H-digoxin or 3H-quinidine bidirectional transport in rMDR1 cells; type: cell-based; parameters: rat Mdr1a (NM_133401.1); expressed in transfected cells; host or cells: Abcb1KO-MDCKII (canine kidney, endogenous Abcb1 knocked out), transduced, single-cell clone; conditions: IC50 from ER
[13] = target: T4, cynomolgus monkey Mdr1; test: cell-based
[14] = total ER cut-off 3, in vivo rodent Kp,uu,brain cut-off 0.3

T1 sequence (Q6PSM0 1-1272): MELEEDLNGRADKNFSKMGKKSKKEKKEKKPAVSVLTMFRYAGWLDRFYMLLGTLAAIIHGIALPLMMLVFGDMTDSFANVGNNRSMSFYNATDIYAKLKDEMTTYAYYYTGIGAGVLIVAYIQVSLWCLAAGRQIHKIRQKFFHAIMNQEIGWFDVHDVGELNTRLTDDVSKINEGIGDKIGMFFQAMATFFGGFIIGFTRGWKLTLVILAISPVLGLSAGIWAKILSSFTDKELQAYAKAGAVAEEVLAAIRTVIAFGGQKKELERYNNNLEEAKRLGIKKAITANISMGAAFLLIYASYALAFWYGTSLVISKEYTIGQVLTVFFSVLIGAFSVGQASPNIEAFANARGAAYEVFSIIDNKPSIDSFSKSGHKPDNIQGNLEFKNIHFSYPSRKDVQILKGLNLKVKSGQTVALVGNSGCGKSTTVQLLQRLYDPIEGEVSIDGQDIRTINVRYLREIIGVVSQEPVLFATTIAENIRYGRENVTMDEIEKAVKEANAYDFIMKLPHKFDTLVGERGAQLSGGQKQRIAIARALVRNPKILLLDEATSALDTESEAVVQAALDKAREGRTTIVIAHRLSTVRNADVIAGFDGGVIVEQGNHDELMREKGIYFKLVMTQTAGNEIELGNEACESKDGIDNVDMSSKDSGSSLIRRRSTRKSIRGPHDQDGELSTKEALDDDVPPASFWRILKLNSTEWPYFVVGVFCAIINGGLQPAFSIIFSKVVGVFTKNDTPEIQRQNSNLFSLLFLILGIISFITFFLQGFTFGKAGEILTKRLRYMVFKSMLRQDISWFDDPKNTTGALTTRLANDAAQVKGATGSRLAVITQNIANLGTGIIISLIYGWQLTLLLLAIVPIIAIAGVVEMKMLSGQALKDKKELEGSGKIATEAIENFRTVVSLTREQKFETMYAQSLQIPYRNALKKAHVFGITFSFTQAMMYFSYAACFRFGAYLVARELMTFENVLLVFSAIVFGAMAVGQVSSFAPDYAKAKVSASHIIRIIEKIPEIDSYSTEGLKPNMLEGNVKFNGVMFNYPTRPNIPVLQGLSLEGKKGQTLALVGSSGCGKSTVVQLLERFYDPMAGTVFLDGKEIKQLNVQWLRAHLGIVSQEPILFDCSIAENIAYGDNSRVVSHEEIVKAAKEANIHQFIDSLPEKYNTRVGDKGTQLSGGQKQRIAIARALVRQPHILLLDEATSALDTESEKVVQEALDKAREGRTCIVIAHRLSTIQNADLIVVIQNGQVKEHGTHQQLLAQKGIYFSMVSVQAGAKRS

Structure (SMILES)	efflux ratio at 120 min, 1 µM [1]	efflux ratio at 120 min, 1 µM [2]	CNS penetration classification based on total ER (hMDR1 + hBCRP) [7, 14]	efflux ratio at 120 min, 1 µM [3]	efflux ratio at 120 min, 1 µM [4]	efflux ratio at 120 min, 1 µM [8]	efflux ratio at 120 min, 1 µM [6]	also measured
CN(C)CCC=C1c2ccccc2CCc2ccccc21 [Amitriptylline]	–	–	–	–	–	–	–	Efflux Ratio in Abcb1KO-MDCKII rMDR1 ([1]; 1 µM, 120 min, mean ± SD): 0.94 ± 0.14; Efflux Ratio in Abcb1KO-MDCKII mMDR1 ([2]; 1 µM, 120 min, mean ± SD): 0.96 ± 0.12; Efflux Ratio in Abcb1KO-MDCKII hMDR1 ([3]; 1 µM, 120 min, mean ± SD): 1.1 ± 0.11; Efflux Ratio in Abcb1KO-MDCKII cyMDR1 ([4]; 1 µM, 120 min, mean ± SD): 0.67 ± 0.08; Efflux Ratio in Abcb1KO-MDCKII Mock [5]: 1.05 ± 0.08; ER in MDCKII BCRP ([6]; 1 µM, 120 min, mean ± SD): 0.8 ± 0.07
CCN(CC)C(=O)/C(C#N)=C/c1cc(O)c(O)c([N+](=O)[O-])c1 [Entacapone]	0.39 ± 0.03	0.34 ± 0.05	true positives	0.28 ± 0.02	0.46 ± 0.07	0.32 ± 0.02	49.4 ± 3.92	CNS penetration classification based on hMDR1 ER alone [3]: false negatives
Cc1ccc(-c2ncc(Cl)cc2-c2ccc(S(C)(=O)=O)cc2)cn1 [Etoricoxib]	2.01 ± 0.21	1.72 ± 0.23	false positives	1.97 ± 0.21	1.24 ± 0.21	0.9 ± 0.09	2.35 ± 0.25	IC50 ([9]; Inhibition of digoxin transport IC50±SD, hMDR1, probe 3H-digoxin 1 µM, 120 min): > 100 µM; IC50 ([9]; Inhibition of quinidine transport IC50±SD, hMDR1, probe 3H-quinidine 1 µM, 60 min): > 100 µM; IC50 [10]: 25.9 ± 10.5 µM; IC50 ([11]; Inhibition of digoxin transport IC50±SD, mMDR1, probe 3H-digoxin 1 µM, 120 min): 57.8 ± 29.8 µM; IC50 ([11]; Inhibition of quinidine transport IC50±SD, mMDR1, probe 3H-quinidine 1 µM, 60 min): 22.2 ± 5.43 µM; IC50 ([12]; Inhibition of digoxin transport IC50±SD, rMDR1, probe 3H-digoxin 1 µM, 120 min): 54.6 ± 3.16 µM; IC50 ([12]; Inhibition of quinidine transport IC50±SD, rMDR1, probe 3H-quinidine 1 µM, 30 min): 18.8 ± 1.22 µM; IC50 [13]: 15.5 ± 11.7 µM
N=C(N)N/N=C/c1c(Cl)cccc1Cl [Guanabenz]	0.85 ± 0.13	1.08 ± 0.09	false positives	0.82 ± 0.1	0.84 ± 0.1	0.93 ± 0.15	3.35 ± 1.17	–
COc1ccc2c(c1)c(CC(=O)O)c(C)n2C(=O)c1ccc(Cl)cc1 [Indomethacin]	0.4 ± 0.01	0.39 ± 0.02	true positives	0.42 ± 0.05	0.4 ± 0.03	0.37 ± 0.07	10.2 ± 0.71	CNS penetration classification based on hMDR1 ER alone [3]: false negatives
OC[C@@H](O)[C@@H](O)[C@H](O)[C@H](O)CO [Mannitol]	0.89 ± 0.12	1.04 ± 0.16	false negatives	0.87 ± 0.14	0.76 ± 0.1	0.96 ± 0.12	0.73 ± 0.2	–
Cc1nccn1CC1CCc2c(c3ccccc3n2C)C1=O (stereo not shown) [Ondansetron]	7.62 ± 0.39	5.33 ± 0.54	false positives	5.24 ± 0.68	3.77 ± 0.64	0.7 ± 0.02	4.28 ± 0.71	–
CNS(=O)(=O)Cc1ccc2[nH]cc(CCN(C)C)c2c1 [Sumatriptan]	2.02 ± 0.12	1.76 ± 0.08	false negatives	1.88 ± 0.12	1.53 ± 0.1	0.93 ± 0.04	1.74 ± 0.24	–
COc1cc(Cc2cnc(N)nc2N)cc(OC)c1OC [Trimethoprim]	13.2 ± 0.68	9.04 ± 0.49	false positives	7.29 ± 0.69	1.65 ± 0.1	0.84 ± 0.06	3.08 ± 0.17	–
CC(=O)CC(c1ccccc1)c1c(O)c2ccccc2oc1=O (stereo not shown) [Warfarin]	0.6 ± 0.01	0.58 ± 0.02	–	0.56 ± 0.02	0.58 ± 0.05	0.54 ± 0.02	4.03 ± 0.29	CNS penetration classification based on total ER (hMDR1 + hBCRP) ([7]; not told): false positives
